In US9714243B2, “4-pyridinonetriazine derivatives as HIV integrase inhibitors” (Merck Sharp & Dohme Corp., priority 2012, dated 2017) one finds IC50 data, which are given here for 47 compounds.

The experiment deals with HIV-1 (NL4-3 strain). The experiment in a line: Assay for inhibition of HIV replication (ViKinG; infected MT4-GFP cells). Format: cell-based. The method, boiled down: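 MT4-GFP cells infected with NL4-3 at low MOI for 24 h, washed, then exposed to serially diluted compound (0.4% DMSO) in RPMI. GFP+ cells counted at 24 and 48 h; R0 = 48 h/24 h ratio, inhibition normalised to DMSO and triple-drug controls, IC50 from 4-parameter fit.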

The mark [1] stands for this setting: Human immunodeficiency virus 1, NL43, MT4-GFP cells infected with HIV-1 NL4-3, 0% normal human serum (NHS), read-out: ViKinG IP (nM) with 0% NHS.
Where [2] appears, read: Human immunodeficiency virus 1, NL43, MT4-GFP cells infected with HIV-1 NL4-3, 10% normal human serum (NHS), read-out: ViKinG IP (nM) with 10% NHS.
Where [3] appears, read: MT4-GFP cells infected with HIV-1 NL4-3, 0% normal human serum (NHS), read-out: ViKinG IP (nM) with 0% NHS.
The mark [4] stands for this setting: MT4-GFP cells infected with HIV-1 NL4-3, 10% normal human serum (NHS), read-out: ViKinG IP (nM) with 10% NHS.
Where [5] appears, read: Human immunodeficiency virus 1, NL43, MT4-GFP cells infected with HIV-1 NL4-3, 100% normal human serum (NHS), read-out: ViKinG IP (nM) with 100% NHS.
The mark [6] stands for this setting: MT4-GFP cells infected with HIV-1 NL4-3, 100% normal human serum (NHS), read-out: ViKinG IP (nM) with 100% NHS.

Like-named read-outs stand apart in the source and are kept apart here.

Take `CN1C(=O)c2c(O)c(=O)c(-c3nnc(Cc4ccc(F)cc4F)s3)cn2N(C)C12CCCc1occc12` (racemic) [Compound 78]: the IC50 was 10.7 nM under setting [1] and 93 nM under setting [2]. Take `CN1C(=O)c2c(O)c(=O)c(-c3nnc(Cc4ccc(F)cc4F)s3)cn2N(C)C12CCC(C(=O)N1CCCC1)CC2` (centres unmarked) [Compound 116]: the IC50 under setting [3] stood at 3.94 nM and the IC50 under setting [4] is 15.2 nM. The matching figures for `CN1C(=O)c2c(O)c(=O)c(-c3nnc(Cc4ccc(F)cc4F)s3)cn2N(C)C12CCC(C(=O)O)CC2` (centres unmarked) [Compound 88]: 1280 nM and 4200 nM. On to `CCN1C(=O)c2c(O)c(=O)c(-c3nnc(Cc4ccc(F)cc4F)s3)cn2N(C)C12CCC(OCCOC)CC2` (centres unmarked) [Compound 64], for which the IC50 under setting [1] amounted to 3.3 nM and the IC50 under setting [5] worked out at 77.2 nM. As to `CN1C2CCCCN2C(=O)c2c(O)c(=O)c(-c3nnc(Cc4ccc(F)cc4F)s3)cn21` (centres unmarked) [Compound 158], the IC50 by setting is: under setting [4], 17.7 nM; under setting [6], 503 nM. Regarding `CN1n2cc(-c3nnc(Cc4ccc(F)cc4F)s3)c(=O)c(O)c2C(=O)NC12CC[C@H]1C[C@H]12` (mixture of isomers) [Compound 201], the IC50 was found to be 3.82 nM under setting [1] and 575 nM under setting [5].

`CCN1C(=O)c2c(O)c(=O)c(-c3nnc(Cc4ccc(F)cc4)s3)cn2N(C)C12CCC(C(=O)N(C)C)CC2` (centres unmarked) [Compound 93]: the IC50 under setting [4] amounted to 255 nM. In the case of `CN1C(=O)c2c(O)c(=O)c(-c3nnc(Cc4ccc(F)cc4F)s3)cn2N(C)C12CCC(C(=O)NC1(C)CC1)CC2` (centres unmarked) [Compound 113], the IC50 was found to be 22.2 nM under setting [3] and 72.2 nM under setting [4]. `CN1C2C(O)CCCN2C(=O)c2c(O)c(=O)c(-c3nnc(Cc4ccc(F)cc4F)s3)cn21` (centres unmarked) [Compound 167]: the IC50 stood at 2.52 nM under setting [3] and 41.9 nM under setting [6]. Turning to `CCN1C(=O)c2c(O)c(=O)c(-c3nnc(Cc4ccc(F)cc4)s3)cn2N(C)C12CCC(CC(=O)N(C)C)CC2` (centres unmarked) [Compound 97], the IC50 worked out at 23.4 nM under setting [2] and 133 nM under setting [5]. For `CCN1C(=O)c2c(O)c(=O)c(-c3nnc(Cc4ccc(F)cc4F)s3)cn2N(C)C12CCC(F)(F)CC2` [Compound 56], the IC50 was found to be 12 nM under setting [1] and 1980 nM under setting [5].

Take `CCN1C(=O)c2c(O)c(=O)c(-c3nnc(Cc4ccc(F)cc4F)s3)cn2N(C)C1CC(C)O` (centres unmarked) [Compound 41]: the IC50 is 3.15 nM under setting [1] and 73.2 nM under setting [2]. With `CN1C(=O)c2c(O)c(=O)c(-c3nnc(Cc4ccc(F)cc4F)s3)cn2N(C)C12CCC1C(=O)NC(=O)C1C2` (centres unmarked) [Compound 81], the IC50 under setting [3] worked out at 37.5 nM and the IC50 under setting [6] is 1610 nM. With `COC1(C)CCC2(CC1)N(C)C(=O)c1c(O)c(=O)c(-c3nnc(Cc4ccc(F)cc4F)s3)cn1N2C` (centres unmarked) [Compound 72], the IC50 reads like this: under setting [1], 6.07 nM; under setting [2], 9.93 nM.

In the case of `CCN1C(=O)c2c(O)c(=O)c(C(=O)NCc3ccc(F)cc3F)cn2CC12CC2` [Compound 179], the IC50 runs as follows: under setting [1], 2.86 nM; under setting [5], 1360 nM. The matching figures for `CCN1C(=O)c2c(O)c(=O)c(-c3nnc(Cc4ccc(F)cc4F)s3)cn2N(C)C1c1ccc(F)c(OC)c1` (racemic) [Compound 48]: 19.6 nM and 416 nM. As for `CCN1C(=O)c2c(O)c(=O)c(-c3nnc(Cc4ccc(F)cc4F)s3)cn2N(C)C12CCC(C(F)(F)F)CC2` (centres unmarked) [Compound 49], the IC50 reads like this: under setting [1], 19.8 nM; under setting [6], 406 nM. For `CCN1C(=O)c2c(O)c(=O)c(-c3nnc(Cc4ccc(F)cc4F)s3)cn2N(C)C12CCC(Oc1ccccc1)CC2` (centres unmarked) [Compound 54], the IC50 is, setting by setting: under setting [3], 82.8 nM; under setting [6], 1470 nM. As for `CN1C2COCCN2C(=O)c2c(O)c(=O)c(-c3nnc(Cc4ccc(F)cc4)s3)cn21` (centres unmarked) [Compound 161], the IC50 under setting [4] came to 41.1 nM and the IC50 under setting [6] stood at 465 nM. As for `CN1C2CCCCCN2C(=O)c2c(O)c(=O)c(-c3nnc(Cc4ccc(F)cc4F)s3)cn21` (racemic) [Compound 159], the IC50 under setting [2] is 121 nM.

For the compound `COCCN1C(=O)c2c(O)c(=O)c(C(=O)NCc3ccc(F)cc3F)cn2N(C)C12CC[C@@H]1C[C@@H]12` (some centres unmarked) [Compound 190], the IC50 is, setting by setting: under setting [1], 29 nM; under setting [5], 2910 nM. As to `CN1C(=O)c2c(O)c(=O)c(-c3nnc(Cc4ccc(F)cc4F)s3)cn2N(C)C12CCC(C(=O)NCc1cncs1)CC2` (centres unmarked) [Compound 133], the IC50 amounted to 190 nM under setting [3] and 548 nM under setting [4]. Consider `CCN1C(=O)c2c(O)c(=O)c(-c3nnc(Cc4ccc(F)cc4F)s3)cn2N(C)C12CCC(O)CC2` (centres unmarked) [Compound 51], for which the IC50 by setting is: under setting [5], 204 nM; under setting [3], 8.5 nM. Turning to `CN1C(=O)c2c(O)c(=O)c(-c3nnc(Cc4ccc(F)cc4F)s3)cn2N(C)C12CCC(C)(O)CC2` (centres unmarked) [Compound 70], the IC50 by setting is: under setting [3], 9.9 nM; under setting [4], 39.1 nM.

Regarding `CCOC1CCC2(CC1)N(CC)C(=O)c1c(O)c(=O)c(C(=O)NCc3ccc(F)cc3F)cn1N2C` (centres unmarked) [Compound 191], the IC50 is, setting by setting: under setting [1], 6.74 nM; under setting [6], 239 nM.

Turning to `COC1CCC2(CC1)Cn1cc(C(=O)NCc3ccc(F)cc3F)c(=O)c(O)c1C(=O)N2C` (centres unmarked) [Compound 181], the IC50 under setting [1] turned out to be 2.48 nM and the IC50 under setting [5] was 28.9 nM.

`CCN1C(=O)c2c(O)c(=O)c(-c3nnc(Cc4ccc(F)cc4)s3)cn2N(C)C12CC(C(=O)OC)C2` (centres unmarked) [Compound 224]: the IC50 was found to be 49.3 nM under setting [2] and 361 nM under setting [5]. Take `CN1C(=O)c2c(O)c(=O)c(-c3nnc(Cc4ccc(F)cc4F)s3)cn2N(C)C12CCC(C)(CO)CC2` (centres unmarked) [Compound 85]: the IC50 is 12.5 nM under setting [1], 150 nM under setting [5] and 29.5 nM under setting [4]. Take `CCN1C(=O)c2c(O)c(=O)c(-c3nnc(Cc4ccc(F)cc4F)s3)cn2N(C)C12CCC(OC)CC2` (centres unmarked) [Compound 26]: the IC50 stood at 9.22 nM under setting [2], 115 nM under setting [5] and 2.83 nM under setting [3].

`CN(C(=O)C1CCC2(CC1)N(C)C(=O)c1c(O)c(=O)c(-c3nnc(Cc4ccc(F)cc4F)s3)cn1N2C)C1CC1` (centres unmarked) [Compound 109]: the IC50 under setting [2] turned out to be 18.2 nM and the IC50 under setting [3] stood at 12.1 nM. Take `CN1C(=O)c2c(O)c(=O)c(-c3cn(Cc4ccc(F)cc4F)nn3)cn2CC12CCC2` [Compound 215]: the IC50 under setting [1] was found to be 9.93 nM and the IC50 under setting [5] was 76.1 nM. In the case of `CN1C(=O)c2c(O)c(=O)c(-c3nnc(Cc4ccc(F)cc4F)s3)cn2N(C)C12CCC(C(=O)NCc1cncs1)CC2` (centres unmarked) [Compound 134], the IC50 under setting [3] is 20.9 nM and the IC50 under setting [4] amounted to 122 nM. Consider `CCN1C(=O)c2c(O)c(=O)c(-c3nnc(Cc4ccc(F)cc4F)s3)cn2N(C)C12CCC(c1nc(C)no1)CC2` (centres unmarked) [Compound 46], for which the IC50 came out at 6.78 nM under setting [1] and 139 nM under setting [5]. Regarding `CCN1C(=O)c2c(O)c(=O)c(-c3nnc(Cc4ccc(F)cc4F)s3)cn2N(C)C12CCC(CC(=O)OC)CC2` (centres unmarked) [Compound 21], the IC50 under setting [2] amounted to 31.8 nM. Turning to `COCCN1C(=O)c2c(O)c(=O)c(-c3nnc(Cc4ccc(F)cc4F)s3)cn2N(C)C12CCC2` [Compound 173], the IC50 reads like this: under setting [1], 7 nM; under setting [5], 526 nM. The matching figures for `CCN1C(=O)c2c(O)c(=O)c(-c3nnc(Cc4ccc(F)cc4F)s3)cn2CC12CCC2` [Compound 211]: 10.3 nM and 2800 nM. Take `CCN1C(=O)c2c(O)c(=O)c(-c3nnc(Cc4ccc(F)cc4F)s3)cn2N(C)C12CCC(C(=O)N(C)C)CC2` (centres unmarked) [Compound 100]: the IC50 is, setting by setting: under setting [1], 7.51 nM; under setting [5], 111 nM; under setting [4], 6.47 nM. Turning to `CCN1C(=O)c2c(O)c(=O)c(-c3nnc(Cc4ccc(F)cc4)s3)cn2N(CCOC)C1C` (centres unmarked) [Compound 169], the IC50 by setting is: under setting [2], 90 nM; under setting [5], 1510 nM. For `CCN1C(=O)c2c(O)c(=O)c(-c3nnc(Cc4ccc(F)cc4)s3)cn2N(CC(=O)N(C)C)C1(C)C` [Compound 171], in that order: 21 nM and 673 nM. `CN1C(=O)c2c(O)c(=O)c(-c3nnc(Cc4ccc(F)cc4F)s3)cn2N(C)C12CCC(C(=O)O)CC2` (centres unmarked) [Compound 89]: the IC50 under setting [3] was determined as 44.9 nM and the IC50 under setting [4] came to 322 nM.

For `CCN1C(=O)c2c(O)c(=O)c(-c3nnc(Cc4ccc(F)cc4F)s3)cn2N(C)C12CCC1(CCC(=O)N1)CC2` (centres unmarked) [Compound 22], under setting [2], the IC50 was found to be 292 nM. As for `COCCN1C(=O)c2c(O)c(=O)c(C(=O)NCc3ccc(F)cc3F)cn2[C@@H](C)C12CC2` [Compound 183], the IC50 under setting [1] amounted to 3.17 nM and the IC50 under setting [5] is 188 nM. As to `CN1C2CCCCN2C(=O)c2c(O)c(=O)c(-c3nnc(Cc4ccc(F)cc4)s3)cn21` (centres unmarked) [Compound 154], the IC50 amounted to 33.9 nM under setting [4] and 1590 nM under setting [6]. Turning to `CN1C(=O)c2c(O)c(=O)c(-c3nnc(Cc4ccc(F)cc4F)s3)cn2N(C)C12CCC(C(=O)NCC1(O)CC1)CC2` (centres unmarked) [Compound 124], the IC50 under setting [3] is 11.3 nM and the IC50 under setting [4] amounted to 22.6 nM.

On to `CN1C(=O)c2c(O)c(=O)c(-c3nnc(Cc4ccc(F)cc4F)s3)cn2N(C)C12CCC(C(=O)NCc1cn(C)cn1)CC2` (centres unmarked) [Compound 132], for which the IC50 runs as follows: under setting [3], 109 nM; under setting [4], 173 nM.

Regarding `CCN1C(=O)c2c(O)c(=O)c(-c3nnc(Cc4ccc(F)cc4F)s3)cn2N(C)C12CCC(Oc1ccccc1)CC2` (centres unmarked) [Compound 53], the IC50 was 1030 nM under setting [5] and 15.7 nM under setting [3]. `CCN1C(=O)c2c(O)c(=O)c(-c3nnc(Cc4ccc(F)cc4F)s3)cn2N(C)C12CC[C@@H](C(=O)OC)[C@H](C)C2` (some centres unmarked) [Compound 32]: the IC50 under setting [2] is 21.1 nM.
